{"source": "patent US20230310813A1", "about": "“DIMERIC NAPHTHALIMIDE COATING” (ALUCENT BIOMEDICAL, INC., priority 2020, published 2023)", "assay_type_in_all_cases": "physicochemical", "key": {"[1]": {"assay": "10-8-10 stability over 8 hours in solvent systems", "procedure": "The purity of a composition was analyzed by UPLC or HPLC.\n(§1) The non-limiting exemplary and comparative solvent systems listed in Table 1 were prepared by combining the components of the solvent system at the indicated concentrations. The resulting mixture was then mixed at room temperature until a colorless, clear mixture was obtained. Compound of Formula (I) was then added in the indicated amount and the resulting mixture was mixed at room temperature until a yellow/orange translucent mixture was obtained."}, "[2]": {"assay": "Solubility of Compound of Formula (I) in solvent systems", "procedure": "as §1\n(§2) The solubility and stability of solvent systems were determined."}, "[3]": {"assay": "Storage stability in solvent systems", "procedure": "as §2"}, "[4]": {"assay": "Stability of coated balloon coating after sterilization (UPLC/HPLC)", "procedure": "A solvent system was prepared by combining ethanol and water and acetic acid in a volume ratio of 89.5:10:0.5. The resulting mixture was then mixed at room temperature until a colorless, clear mixture was obtained. Compound of Formula (I) was then added in the indicated amount and the resulting mixture was mixed at room temperature until a yellow/orange translucent mixture was obtained. This mixture was applied to a 5 mm×60 mm balloon by a pipetting method. The coated balloon was then dried to evaporate the solvent. A coated balloon with a coating thickness of 10 μg/mm^2 was obtained. The calculated amount of Compound of Formula (I) on the coated balloon was 7759 μg.\nCoated balloons from Example 3 were sterilized either by ethylene oxide sterilization (EO), gamma sterilization (Gamma) or electron beam sterilization (E-Beam). A group of control balloons was left untreated (Control). After sterilization, a sample of the coating on each of the coated balloons was removed and analyzed."}, "[5]": {"assay": "Stability of coated balloon in reduced oxygen and reduced moisture packaging", "settings": "coated balloon stored in reduced oxygen and reduced moisture packaging", "procedure": "Packaged coated balloons were prepared as follows. A coated balloon from Example 3 was placed in a foil pouch. The concentration of oxygen within the foil pouch was reduced by purging with nitrogen. A desiccant was added to the foil pouch before sealing the oxygen-purged foil pouch comprising the coated balloon and the desiccant.\nAt various time points after packaging, a coated balloon was taken out of its packaging. A sample of the coating on the coated balloon was removed and analyzed."}, "[6]": {"assay": "Room temperature stability of coated balloons", "settings": "for amount of main impurity by LC / formation of impurities over time: 25° C., 60% RH, 0-24 months", "procedure": "Angioplasty balloons coated with the Compound of Formula (I) (“10-8-10 compound”) were tested for their stability at 25° C. over a period of 0, 3, 6, and 12 months. The products described in Table 4 were placed in storage at 25° C.\nSamples of each article were taken after 0, 3, 6, 12, 18 and 24 months of storage at 25° C., 60% RH."}, "[7]": {"settings": "coated balloon after electron beam sterilization (E-Beam)"}, "[8]": {"settings": "coated balloon after ethylene oxide sterilization (EO)"}, "[9]": {"settings": "coated balloon after gamma sterilization (Gamma)"}, "[10]": {"settings": "coated balloon, Control (not sterilized)"}}, "note": "“And” between values parts separate entries of the source, which are not always exact repeats. Equal entries are not always repeated. “Also recorded” adds a separate entry of the source.", "data": [{"molecule": "NCCOCCOCCNc1ccc2c3c(cccc13)C(=O)N(CCOCCOCCN1C(=O)c3cccc4c(NCCOCCOCCN)ccc(c34)C1=O)C2=O", "note": "[Compound of Formula (I), 2,2′-((ethane-1,2-diylbis(oxy))bis(ethane-2,1-diyl))bis(6-((2-(2-(2-aminoethoxy)ethoxy)ethyl)amino)-1H-benzo[de]isoquinoline-1,3(2H)-dione)]", "values": [{"measurement": "10-8-10 stability over 8 hours", "setting": "[1]; solvent system 89.5% Ethanol/10% water/0.5% acetic acid", "value": "✓"}, {"measurement": "10-8-10 stability over 8 hours", "setting": "[1]; solvent system 99.5% Ethanol/0.5% acetic acid", "value": "✓"}, {"measurement": "10-8-10 stability over 8 hours", "setting": "[1]; solvent system Ethanol/IPA", "value": "✓"}, {"measurement": "degradation", "setting": "[1]; solvent system comprising ethanol, water, and acetic acid", "value": "does not degrade appreciably"}, {"measurement": "Solubility >2% w/w", "setting": "[2]; Table 1, solvent system 89.5% Ethanol/10% water/0.5% acetic acid", "value": "✓"}, {"measurement": "Solubility >2% w/w", "setting": "[2]; Table 1, solvent system 99% Ethanol/1% Acetone", "value": "✓"}, {"measurement": "Solubility >2% w/w", "setting": "[2]; Table 1, solvent system Ethanol/Acetone/BHT", "value": "✓"}, {"measurement": "Solubility >2% w/w", "setting": "[2]; Table 1, solvent system Ethanol/MEK", "value": "✓"}, {"measurement": "Solubility >2% w/w", "setting": "[2]; Table 2, EtOH/Acetic Acid (99.5:0.5)", "value": "✓"}, {"measurement": "Solubility >2% w/w", "setting": "[2]; Table 2, EtOH/Water (90:10)", "value": "✓"}, {"measurement": "Solubility >2% w/w", "setting": "[2]; Table 2, EtOH/Water (98:2)", "value": "✓"}, {"measurement": "Solubility >2% w/w", "setting": "[2]; Table 2, EtOH/Water/Acetic Acid (89.5:10:0.5)", "value": "✓"}, {"measurement": "Solubility >2% w/w", "setting": "[2]; Table 2, EtOH/Water/Acetic Acid (99.4:0.5:0.1)", "value": "✓"}, {"measurement": "Storage stability", "setting": "[3]; EtOH/Water (90:10)", "value": "✓"}, {"measurement": "Storage stability", "setting": "[3]; EtOH/Water/Acetic Acid (89.5:10:0.5)", "value": "✓"}, {"measurement": "solubility and stability", "setting": "[3]; ethanol, water, acetic acid (89.5:10:0.5) solvent system", "value": "exhibited both solubility and stability"}, {"measurement": "solubility and stability", "setting": "[3]; ethanol/water (90:10) solvent system", "value": "exhibited both solubility and stability"}, {"measurement": "change in impurity concentration", "setting": "[4]; coated article after radiation sterilization (gamma irradiation, electron beam)", "value": "No change or minimal increase; also recorded: minimal increase"}, {"measurement": "degradation", "setting": "[4]; coated article subjected to ethylene oxide sterilization", "value": "degrades appreciably"}, {"measurement": "Compound of Formula (I) (HPLC area-%)", "setting": "[4]; [7]", "value": "98.22 HPLC area-% and 98.33 HPLC area-% and 98.37 HPLC area-%"}, {"measurement": "Total impurities (HPLC area-%)", "setting": "[4]; [7]", "value": "1.78 HPLC area-% and 1.67 HPLC area-% and 1.63 HPLC area-%"}, {"measurement": "Compound of Formula (I) (HPLC area-%)", "setting": "[4]; [8]", "value": "94.75 HPLC area-% and 94.26 HPLC area-% and 94.35 HPLC area-%"}, {"measurement": "Total impurities (HPLC area-%)", "setting": "[4]; [8]", "value": "5.25 HPLC area-% and 5.74 HPLC area-% and 5.65 HPLC area-%"}, {"measurement": "Compound of Formula (I) (HPLC area-%)", "setting": "[4]; [9]", "value": "98.32 HPLC area-% and 98.37 HPLC area-% and 98.28 HPLC area-%"}, {"measurement": "Total impurities (HPLC area-%)", "setting": "[4]; [9]", "value": "1.68 HPLC area-% and 1.63 HPLC area-% and 1.72 HPLC area-%"}, {"measurement": "Compound of Formula (I) (HPLC area-%)", "setting": "[4]; [10]", "value": "98.33 HPLC area-% and 98.32 HPLC area-%"}, {"measurement": "Total impurities (HPLC area-%)", "setting": "[4]; [10]", "value": "1.67 HPLC area-% and 1.68 HPLC area-%"}, {"measurement": "increase in impurity concentration", "setting": "[5]", "value": "minimal"}, {"measurement": "degradation", "setting": "[6]; coated article stored at room temperature", "value": "degrades appreciably"}, {"measurement": "degradation rate over time at room temperature", "setting": "[6]; coating further comprising at least one antioxidant", "value": "reduced"}, {"measurement": "amount of main impurity by LC / formation of impurities over time", "setting": "[6]; coating with BHT vs coating of only Compound of Formula (I)", "value": "lower amounts; also recorded: reduction"}, {"measurement": "amount of main impurity by LC / formation of impurities over time", "setting": "[6]; coating with tromethamine vs coating of only Compound of Formula (I)", "value": "lower amounts; also recorded: reduction"}]}]}
